According to patent US9814709B2, “Bruton's tyrosine kinase inhibitor” (HEFEI INSTITUTES OF PHYSICAL SCIENCE, CHINESE ACADEMY OF …, priority 2014, dated 2017):

How the values were obtained:
[1] = system: SD rat adjuvant arthritis (AA) model; assay: SD rat adjuvant arthritis (AA) model, arthritis index; type: in vivo
Experimental: In this example, SD rat adjuvant arthritis (AA) model (purchased from the Experimental Animal Center of Anhui Province) was used. PCI-32765 and methotrexate (MTX) were used as positive control (both purchased from Shanghai Chemexpress). The therapeutic effect of Compound 1 on AA rats was studied via the combination of in vivo and in vitro administration. 10 mg/nal of complete Freund's adjuvant (CFA, purchased from Shanghai Chemexpress) was mixed well, and 0.1 ml of CFA was intracutaneously injected into each rat at right posterior plantar to induce inflammation. The normal group was injected with saline via the same method. On the 17th day, the successful modeling male SD rats were randomly divided into 7 groups with 10 rats in each group, namely the model group, the small/medium/large dose of Compound 1 group (12.5, 25, 50 mg/kg/per administration, intraperitoneal injection, one administration per day for 16 days), the Compound 19 group (25 mg/kg/per administration, intraperitoneal injection, one administration per day for 16 days), the positive control PCI-32765 group (25 mg/kg/per administration, intraperitoneal injection, one administration per day for 16 days), the MTX group (0.5 mg/kg, intragastrical, one administration every 3 days, totally 6 times). The rats in the model group were intraperitoneally injected with the same amount of DMSO solution.

BTK C481S protein = target: T1, BTK C481S protein (Homo sapiens, UniProt Q06187, C481S); assay: Btk acellular kinase assay, BTK C481S mutant protein purified from transfected 293T cells; type: biochemical; settings: 3-1000 nM, 100 μM ATP
T1 construct: made in house; host or cells: 293T cells
T1 sequence (Q06187 whole entry C481S): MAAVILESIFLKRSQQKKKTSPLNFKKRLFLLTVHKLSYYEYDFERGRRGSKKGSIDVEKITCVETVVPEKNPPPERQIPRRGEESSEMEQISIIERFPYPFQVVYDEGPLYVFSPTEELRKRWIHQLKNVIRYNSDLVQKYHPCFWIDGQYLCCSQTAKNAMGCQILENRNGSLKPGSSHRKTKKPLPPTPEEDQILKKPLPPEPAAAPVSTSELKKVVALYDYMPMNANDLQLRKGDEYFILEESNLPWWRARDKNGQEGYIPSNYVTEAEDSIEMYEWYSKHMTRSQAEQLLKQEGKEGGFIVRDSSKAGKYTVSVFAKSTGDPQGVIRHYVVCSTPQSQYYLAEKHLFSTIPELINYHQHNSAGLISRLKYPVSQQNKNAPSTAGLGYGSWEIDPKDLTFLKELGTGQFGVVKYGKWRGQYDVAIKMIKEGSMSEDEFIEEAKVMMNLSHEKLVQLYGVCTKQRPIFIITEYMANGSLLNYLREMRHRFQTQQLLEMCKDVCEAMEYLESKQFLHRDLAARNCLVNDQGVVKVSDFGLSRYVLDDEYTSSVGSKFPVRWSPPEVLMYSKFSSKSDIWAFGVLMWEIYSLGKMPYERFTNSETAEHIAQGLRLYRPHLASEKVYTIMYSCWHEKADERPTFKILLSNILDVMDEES
Experimental: (§1) The BTK wild-type plasmid and the BTK mutant plasmid (C481S) were respectively transfected into 293T cells (purchased from ATCC), and the resultant cells were marked as BTK WT 293T cells and BTK C481S 293T cells, respectively. After cell culture for 2 days, the cells were harvested and purified to give BTK WT and BTK C481S proteins. The compounds of formula (I) were added to the BTK WT and BTK C481S proteins at different concentrations of 3 nM, 10 nM, 30 nM, 100 nM, 300 nM and 1000 nM, respectively, and reacted at room temperature for 30 min, followed by the addition of 100 μM ATP at 37° C. and reacting for 20 min.

BTK WT protein = target: T2, BTK WT protein (Homo sapiens, UniProt Q06187); assay: Btk acellular kinase assay, BTK WT protein purified from transfected 293T cells; type: biochemical; settings: 100 μM ATP
T2 construct: made in house; host or cells: 293T cells
T2 sequence (Q06187 whole entry): as the sequence (Q06187 whole entry C481S) above, with S481C counted along it
Experimental: as §1

B-lymphoma cell Ramos = assay: Cancer cell growth, Cell Titer-Glo; type: cell-based; settings: Homo sapiens, 72 hrs, read-out: Half inhibitory concentration IC50
Description: (§2) We further assessed the selectivity of Compound 1 to inhibit the proliferation of cancer cells, by testing the effect of Btk inhibitor on the growth of cancer cells. In the example, we used B-lymphoma cell Ramos, cervical cancer cells HeLa, prostate cancer cells DU145, RV-1 and C4-2, colon cancer cells HCT116, blood cancer cells K562, B-cell lymphoma cells U2932, diffuse large B-cell lymphoma cells OCI-LY10, diffuse histiocytic lymphoma cells SU-DHL-2, diffuse large B-cell lymphoma cells TMD8, human non-small cell lung cancer cells H1975 (expressing EGFR L858R/T790M double mutant gene), human lung adenocarcinoma cells A549 (expressing wild-type EGFR gene), human non-small cell lung cancer cells H460 (expressing wild-type EGFR gene), mantel cell lymphoma (MCL) cells Z-138, EB virus infected human peripheral lymphocyte cells JVM-2, MCL cells REC-1, leukemia cells AML-3, acute promyelocytic leukemia cell line NB-4(Lu+), MDS-RAEB (myelodysplastic syndrome-excessive blasts) cell line SKM-1 human leukemia cell Nomo-1, human B-cell leukemia cell line NALM6, human leukocyte leukemia cells HEL, human T-cell lymphoma cells PF-382, acute myelocytic leukemia (AML) cell line MOLM14, AML cell line MOLM13, human Burkitt's lymphoma cells Namalwa, mouse pro-B cells BaF3, all of where were purchased from ATCC. Also used were mouse TEL-EGFR-BaF3 (stably expressing TEL-EGFR activated kinase), mouse TEL-EGFR/T790-BaF3 cells (stably expressing TEL-EGFR-T790M activated mutant kinase), mouse TEL-EGFR/L858R-BaF3 cells (stably expressing TEL-EGFR-L858R activated mutant kinase), mouse TEL-EGFR/T790/L858R-BaF3 (stably expressing TEL-EGFR-T790M/L858R activated mutant kinase), mouse TEL-BMX-BaF3 cells (stably expressing TEL-BMX activated kinase), mouse TEL-JAK1-BaF3 cells (stably expressing TEL-JAK1 activated kinase), mouse TEL-JAK2-BaF3 cells (stably expressing TEL-JAK2 activated kinase), mouse TEL-JAK3-BaF3 cells (stably expressing TEL-JAK3 activated kinase), where were all established by our laboratory via the following method: the kinase domain sequences of human EGFR, BMX, JAK1, JAK2, JAK3 were amplified respectively by PCR, and these kinase were inserted into the MSCV-Puro vectors with N-terminal TEL segment (Clontech); if there was a mutation, the mutation of the corresponding site was conducted by Site-Directed Mutagenesis kit (Stratagene); the resultants were stably transfected into mouse BaF3 cells by the means of retrovirus, and the IL-3 growth factors were removed, and eventually the EGFR, BMX, JAK1, JAK2, JAK3-transferred protein dependent cell lines were obtained.
(§3) In the example, different concentrations (0.000508 μM, 0.00152 μM, 0.00457 μM, 0.0137 μM, 0.0411 μM, 0.123 μM, 0.370 μM, 1.11 μM, 3.33 μM, 10 μM) of Compound 1 and Compound 19 were added into above cells, and were incubated for 72 hrs. The number of viable cells was determined by quantitating ATP in viable cells using Cell Titer-Glo® (Promega, U.S.) chemiluminescence cell viability assay kit.

[2] = system: acute myelocytic leukemia (AML) cell line MOLM14; assay: Cancer cell growth, Cell Titer-Glo; type: cell-based; settings: Homo sapiens, MOLM-14; MOLM14, 72 hrs; read-out: Half inhibitory concentration IC50
Description: as §2, §3

blood cancer cells K562 = assay: Cancer cell growth, Cell Titer-Glo; type: cell-based; settings: Homo sapiens; K562, 72 hrs; read-out: Half inhibitory concentration IC50
Description: as §2, §3

[3] = system: human leukemia cell Nomo-1; assay: Cancer cell growth, Cell Titer-Glo; type: cell-based; settings: Nomo-1, 72 hrs, read-out: Half inhibitory concentration IC50
Description: as §2, §3

MCL cells REC-1 = assay: Cancer cell growth, Cell Titer-Glo; type: cell-based; settings: Homo sapiens, Rec1; REC-1, 72 hrs; read-out: Half inhibitory concentration IC50
Description: as §2, §3

[4] = system: prostate cancer cells DU145; assay: Cancer cell growth, Cell Titer-Glo; type: cell-based; settings: Homo sapiens, DU-145; DU145, 72 hrs; read-out: Half inhibitory concentration IC50
Description: as §2, §3

[5] = system: diffuse histiocytic lymphoma cells SU-DHL-2; assay: Cancer cell growth, Cell Titer-Glo; type: cell-based; settings: Homo sapiens; SU-DHL-2, 72 hrs; read-out: Half inhibitory concentration IC50
Description: as §2, §3

[6] = system: colon cancer cells HCT116; assay: Cancer cell growth, Cell Titer-Glo; type: cell-based; settings: Homo sapiens, HCT-116; HCT116, 72 hrs; read-out: Half inhibitory concentration IC50
Description: as §2, §3

SMILES	effect on the rat arthritis index ([1]; 25 mg/kg intraperitoneal once per day for 16 days)	inhibitory effect on BTK C481S (BTK C481S protein)	inhibitory effect on BTK WT (BTK WT protein; 3-1000 nM)	IC50 (B-lymphoma cell Ramos) [µM]	IC50 [2] [µM]	IC50 (blood cancer cells K562) [µM]	IC50 [3] [µM]	IC50 (MCL cells REC-1) [µM]	IC50 [4] [µM]	IC50 [5] [µM]	IC50 [6] [µM]	effect on arthritis index of rats compared with the model group ([1]; 12.5 mg/kg intraperitoneal once per day, starting from day 21)	effect on arthritis index of rats ([1]; 12.5 mg/kg intraperitoneal once per day, starting from day 24)	IC50 (BTK WT protein; 30 min room temperature preincubation, 37° C., 20 min) [µM]
CCC(=O)Nc1cc(-n2c(=O)ccc3cnc4ccc(-n5cccn5)cc4c32)ccc1C [Compound 19, N-(2-methyl-5-(2-oxo-9-(1H-pyrazol-1-yl)benzo[H][1,6]naphthyridin-1(2H)-yl)phenyl) propionamide]	little effect	no inhibitory effect	no inhibitory effect	> 10	> 10	> 10	> 10	> 10	> 10	> 10	> 10			
C=CC(=O)Nc1cc(-n2c(=O)ccc3cnc4ccc(-n5cccn5)cc4c32)ccc1C [Compound 1, N-(2-methyl-5-(2-oxo-9-(1H-pyrazol-1-yl)benzo[H][1,6]naphthyridin-1(2H)-yl)phenyl)acrylamide]		no inhibition		> 10	1.5	> 10	4.9	1.6	> 10	5.02	> 10	significantly reduced	significantly reduce	0.056
